# Measured values as given in patent publication US11780826B2 (Amgen Inc., priority 2017, dated 2023).
# Test system: Bovine cardiac myofibrils
# Experiment: In vitro model of dose-dependent myofibril ATPase modulation (AC1.4, pyruvate kinase/lactate dehydrogenase-coupled ATPase assay at pCa25)
# Format: biochemical
# Details: concentration at which ATPase activity was 1.4-fold higher than the bottom of the dose curve, mean of a minimum of two independent tests
# How it was run: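 ATP turnover tracked as NADH absorbance loss at 340 nm, coupled via pyruvate kinase/lactate dehydrogenase, with 1 mM ATP, 2 mM MgCl2 and 12 mM K-PIPES at pH 6.80 (22° C) under EGTA/CaCl2 calcium buffering. Substrate was detergent-treated bovine cardiac myofibrils; 4-parameter curve fit, AC1.4 averaged over at least two runs.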
row,Structure (SMILES),AC1.4
1,"O=C(NCc1ccc(C(F)(F)F)cc1F)[C@H]1CCCN1C(=O)c1cccc(S(=O)(=O)N2CC(O)C2)c1 [Example 449, N-(2-fluoro-4-(trifluoromethyl)benzyl)-1-(3-((3-hydroxy-1-azetidinyl)sulfonyl)benzoyl)-D-prolinamide]",1.845 µM
2,"N#CC1CN(S(=O)(=O)N2CCC[C@H](C(=O)N3CCC[C@@H]3C(=O)NCc3cc(F)cc(C(F)(F)F)c3)C2)C1 [Example 379, 1-(((3S)-1-((3-cyano-1-azetidinyl)sulfonyl)-3-piperidinyl)carbonyl)-N-(3-fluoro-5-(trifluoromethyl)benzyl)-D-prolinamide]",1.237 µM
3,"N#CC1CN(S(=O)(=O)N2CCC[C@H](C(=O)N3C[C@H]4C[C@H]4[C@@H]3C(=O)NCc3ccc(C(F)(F)F)cc3)C2)C1 [Example 90, (1R,2R,5S)-3-(((3S)-1-((3-cyano-1-azetidinyl)sulfonyl)-3-piperidinyl)carbonyl)-N-(4-(trifluoromethyl)benzyl)-3-azabicyclo[3.1.0]hexane-2-carboxamide]",0.1363 µM
4,"Cc1ccc(CNC(=O)[C@H]2CCCN2C(=O)[C@H]2CCCN(S(=O)(=O)N3CC(C#N)C3)C2)cc1C(F)(F)F [Example 544, 1-(((3S)-1-((3-cyano-1-azetidinyl)sulfonyl)-3-piperidinyl)carbonyl)-N-(4-methyl-3-(trifluoromethyl)benzyl)-D-prolinamide]",2.8175 µM
5,"O=C(N[C@@H](c1cc(F)c(C(F)(F)F)cc1F)C1CC1)[C@H]1C[C@H]2C[C@H]2N1C(=O)c1cccc(C(F)(F)F)n1 [Example 615, (1R,3R,5R)-N-((R)-cyclopropyl(2,5-difluoro-4-(trifluoromethyl)phenyl)methyl)-2-((6-(trifluoromethyl)-2-pyridinyl)carbonyl)-2-azabicyclo[3.1.0]hexane-3-carboxamide]",3.8905 µM
6,"N#CC1CN(S(=O)(=O)c2cccc(C(=O)N3C[C@H](O)C[C@@H]3C(=O)NCc3ccc(C(F)(F)F)cc3)c2)C1 [Example 126, (4R)-1-((3-((3-cyano-1-azetidinyl)sulfonyl)phenyl)carbonyl)-4-hydroxy-N-(4-(trifluoromethyl)benzyl)-D-prolinamide]",0.2062 µM
7,"CS(=O)(=O)c1cc(C(=O)N2CCC[C@@H]2C(=O)N[C@@H](c2cc(F)c(Cl)cc2F)C2CC2)ccn1 [Example 421, N-((R)-(4-chloro-2,5-difluorophenyl)(cyclopropyl)methyl)-1-((2-(methylsulfonyl)-4-pyridinyl)carbonyl)-D-prolinamide]",1.4335 µM
8,"N#C[C@H]1C[C@H](S(=O)(=O)c2cccc(C(=O)N3CCCC[C@@H]3C(=O)NCc3ccc(C(F)(F)F)nc3)c2)C1 [Example 355, (2R)-1-((3-((trans-3-cyanocyclobutyl)sulfonyl)phenyl)carbonyl)-N-((6-(trifluoromethyl)-3-pyridinyl)methyl)-2-piperidinecarboxamide]",1.0472 µM
9,"CS(=O)(=O)c1cccc(C(=O)N2[C@@H](C(=O)N[C@@H](c3ccc(C(F)(F)F)cc3)C3CC3)C[C@H]3C[C@H]32)c1 [Example 596, (1R,3R,5R)-N-((R)-cyclopropyl(4-(trifluoromethyl)phenyl)methyl)-2-(3-(methylsulfonyl)benzoyl)-2-azabicyclo[3.1.0]hexane-3-carboxamide]",2.9335 µM
10,"Cc1ccc(S(C)(=O)=O)cc1C(=O)N1CCC[C@@H]1C(=O)N[C@@H](c1ccc(C(F)(F)F)cc1F)C1CC1 [Example 666, N-((R)-cyclopropyl(2-fluoro-4-(trifluoromethyl)phenyl)methyl)-1-(2-methyl-5-(methylsulfonyl)benzoyl)-D-prolinamide]",4.7065 µM
11,"Cc1cc(F)cc(CNC(=O)[C@H]2CCCN2C(=O)[C@H]2CCCN(S(=O)(=O)N3CC(C#N)C3)C2)c1 [Example 498, 1-(((3S)-1-((3-cyano-1-azetidinyl)sulfonyl)-3-piperidinyl)carbonyl)-N-(3-fluoro-5-methylbenzyl)-D-prolinamide]",2.335 µM
